± gives the expanded uncertainty stated by the source.
Assay: xn = mol fraction of the nth substance listed
Settings: 101 kPa, Liquid

Cc1cccc(O)c1 [3-methylphenol] + OCCO
Settings | mass density [kg/m3] | viscosity [mPa·s]
308.15 K, x1 = 0.0998 | 1088.36 ± 0.63 | 11.72 ± 0.22
308.15 K, x1 = 0.1999 | 1077.36 ± 0.61 | 12.32 ± 0.23
308.15 K, x1 = 0.3 | 1067.31 ± 0.6 | 12.33 ± 0.23
308.15 K, x1 = 0.3996 | 1058.33 ± 0.59 | 11.88 ± 0.22
308.15 K, x1 = 0.5 | 1050.38 ± 0.59 | 11.2 ± 0.21
308.15 K, x1 = 0.5967 | 1043.44 ± 0.59 | 10.37 ± 0.2
308.15 K, x1 = 0.7002 | 1036.6 ± 0.59 | 9.452 ± 0.18
308.15 K, x1 = 0.8 | 1031.15 ± 0.59 | 8.695 ± 0.17
308.15 K, x1 = 0.8989 | 1026.2 ± 0.6 | 8.03 ± 0.16
308.15 K, x1 = 1 | 1021.64 ± 0.61 | 7.701 ± 0.15
313.15 K, x1 = 0.0998 | 1084.66 ± 0.62 | 9.704 ± 0.18
313.15 K, x1 = 0.1999 | 1073.58 ± 0.6 | 10.13 ± 0.19
313.15 K, x1 = 0.3 | 1063.47 ± 0.59 | 10.02 ± 0.19
313.15 K, x1 = 0.3996 | 1054.44 ± 0.58 | 9.673 ± 0.18
313.15 K, x1 = 0.5 | 1046.47 ± 0.58 | 9.067 ± 0.17
313.15 K, x1 = 0.5967 | 1039.51 ± 0.58 | 8.417 ± 0.17
313.15 K, x1 = 0.7002 | 1032.66 ± 0.58 | 7.67 ± 0.15
313.15 K, x1 = 0.8 | 1027.19 ± 0.58 | 7.03 ± 0.14
313.15 K, x1 = 0.8989 | 1022.22 ± 0.59 | 6.496 ± 0.14
313.15 K, x1 = 1 | 1017.63 ± 0.6 | 6.12 ± 0.13
318.15 K, x1 = 0.0998 | 1080.98 ± 0.61 | 8.113 ± 0.16
318.15 K, x1 = 0.1999 | 1069.79 ± 0.59 | 8.371 ± 0.16
318.15 K, x1 = 0.3 | 1059.61 ± 0.58 | 8.275 ± 0.16
318.15 K, x1 = 0.3996 | 1050.55 ± 0.57 | 7.906 ± 0.16
318.15 K, x1 = 0.5 | 1042.56 ± 0.57 | 7.441 ± 0.15
318.15 K, x1 = 0.5967 | 1035.59 ± 0.57 | 6.893 ± 0.14
318.15 K, x1 = 0.7002 | 1028.7 ± 0.57 | 6.322 ± 0.13
318.15 K, x1 = 0.8 | 1023.23 ± 0.57 | 5.853 ± 0.12
318.15 K, x1 = 0.8989 | 1018.22 ± 0.58 | 5.346 ± 0.12
318.15 K, x1 = 1 | 1013.6 ± 0.59 | 5.022 ± 0.11
323.15 K, x1 = 0.0998 | 1077.28 ± 0.6 | 6.869 ± 0.14
323.15 K, x1 = 0.1999 | 1065.98 ± 0.58 | 7.015 ± 0.14
323.15 K, x1 = 0.3 | 1055.75 ± 0.57 | 6.894 ± 0.14
323.15 K, x1 = 0.3996 | 1046.64 ± 0.56 | 6.572 ± 0.14
323.15 K, x1 = 0.5 | 1038.63 ± 0.56 | 6.182 ± 0.13
323.15 K, x1 = 0.5967 | 1031.63 ± 0.56 | 5.763 ± 0.12
323.15 K, x1 = 0.7002 | 1024.74 ± 0.56 | 5.27 ± 0.12
323.15 K, x1 = 0.8 | 1019.25 ± 0.57 | 4.811 ± 0.11
323.15 K, x1 = 0.8989 | 1014.22 ± 0.57 | 4.433 ± 0.099
323.15 K, x1 = 1 | 1009.56 ± 0.58 | 4.158 ± 0.094
333.15 K, x1 = 0.0998 | 1069.86 ± 0.58 | 5.133 ± 0.11
333.15 K, x1 = 0.1999 | 1058.35 ± 0.56 | 5.087 ± 0.11
333.15 K, x1 = 0.3 | 1047.97 ± 0.55 | 4.972 ± 0.11
333.15 K, x1 = 0.3996 | 1038.8 ± 0.54 | 4.817 ± 0.11
333.15 K, x1 = 0.5 | 1030.72 ± 0.54 | 4.45 ± 0.099
333.15 K, x1 = 0.5967 | 1023.71 ± 0.54 | 4.145 ± 0.093
333.15 K, x1 = 0.7002 | 1016.76 ± 0.54 | 3.794 ± 0.085
333.15 K, x1 = 0.8 | 1011.25 ± 0.55 | 3.488 ± 0.079
333.15 K, x1 = 0.8989 | 1006.16 ± 0.56 | 3.219 ± 0.073
333.15 K, x1 = 1 | 1001.44 ± 0.57 | 2.98 ± 0.068
343.15 K, x1 = 0.0998 | 1060.26 ± 4 | 3.81 ± 0.085
343.15 K, x1 = 0.1999 | 1048.59 ± 4 | 3.82 ± 0.085
343.15 K, x1 = 0.3 | 1038.14 ± 4 | 3.72 ± 0.083
343.15 K, x1 = 0.3996 | 1028.9 ± 4 | 3.554 ± 0.08
343.15 K, x1 = 0.5 | 1020.81 ± 4 | 3.332 ± 0.075
343.15 K, x1 = 0.5967 | 1013.76 ± 4 | 3.096 ± 0.07
343.15 K, x1 = 0.7002 | 1006.79 ± 4 | 2.858 ± 0.065
343.15 K, x1 = 0.8 | 1001.25 ± 4 | 2.635 ± 0.061
343.15 K, x1 = 0.8989 | 996.13 ± 4 | 2.426 ± 0.056
343.15 K, x1 = 1 | 991.33 ± 4 | 2.231 ± 0.052
353.15 K, x1 = 0.0998 | 1055.21 ± 0.54 | 2.995 ± 0.068
353.15 K, x1 = 0.1999 | 1043.24 ± 0.53 | 2.967 ± 0.067
353.15 K, x1 = 0.3 | 1032.71 ± 0.51 | 2.882 ± 0.065
353.15 K, x1 = 0.3996 | 1023.39 ± 0.51 | 2.734 ± 0.062
353.15 K, x1 = 0.5 | 1015.21 ± 0.51 | 2.566 ± 0.059
353.15 K, x1 = 0.5967 | 1008.1 ± 0.51 | 2.401 ± 0.055
353.15 K, x1 = 0.7002 | 1001.08 ± 0.51 | 2.237 ± 0.052
353.15 K, x1 = 0.8 | 995.5 ± 0.53 | 2.048 ± 0.048
353.15 K, x1 = 0.8989 | 990.32 ± 0.56 | 1.901 ± 0.045
353.15 K, x1 = 1 | 985.42 ± 0.58 | 1.759 ± 0.042

Source: the NIST ThermoML archive (doi:10.1021/je0504156)
